This note sets out measurements from PubChem BioAssay (NCI).

SMILES strings stand for the structures.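 Interpolation was linear, between the two tested concentrations surrounding the appropriate level; five concentrations were tested over 48 hours in 96-well plates. TGI marks complete inhibition of growth.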

Some test systems named below: SK-MEL-28 melanoma; OVCAR-5 ovarian; HT29 colon; SNB-75 CNS; UACC-62 melanoma; HCT-15 colon; SN12C renal; SK-MEL-2 melanoma; NCI-H226 lung; OVCAR-3 ovarian; MDA-MB-435; U251 CNS; LOX IMVI melanoma; NCI-H522 lung; HL-60(TB) leukemia; HCC-2998 colon; 786-0 renal; CCRF-CEM leukemia; SW-620 colon; SR leukemia.
Holding throughout (assay): inhibition of tumour cell growth, NCI panel, 48 h

Take `COC(=O)c1ccccc1C1CN=NC12Cc1cc(C)c(C)cc1C2=O` (centres undefined): the TGI in the test with SK-MEL-28 melanoma, in the test on OVCAR-5 ovarian, in the test on HT29 colon, in the test on SNB-75 CNS, in the test on UACC-62 melanoma and in the test on HCT-15 colon was more than 100 µM each time. For the same molecule, the TGI in the test on SN12C renal, in the test on SK-MEL-2 melanoma, with NCI-H226 lung, with OVCAR-3 ovarian, with MDA-MB-435 and in the test on U251 CNS was more than 100 µM in each case. In addition, the TGI with LOX IMVI melanoma is 92.7 µM; with NCI-H522 lung it was 67.3 µM; in the test with HL-60(TB) leukemia it was 46.9 µM; in the test on HCC-2998 colon, more than 100 µM; in the test with 786-0 renal, more than 100 µM; in the test on CCRF-CEM leukemia it was more than 100 µM. The same molecule had a TGI in the test on SW-620 colon of more than 100 µM.

`NC(=S)N/N=c1\cc(C(=O)Nc2ccc([N+](=O)[O-])cc2[N+](=O)[O-])oc2ccccc12`: the TGI in the test on SK-MEL-28 melanoma, in the test on OVCAR-5 ovarian, with HT29 colon, in the test on SNB-75 CNS, in the test on UACC-62 melanoma and in the test on HCT-15 colon was more than 100 µM throughout. Also, the TGI in the test with SN12C renal, with SK-MEL-2 melanoma, in the test with NCI-H226 lung, with OVCAR-3 ovarian, with MDA-MB-435 and in the test on U251 CNS was more than 100 µM each time. For the same molecule, the TGI with LOX IMVI melanoma, in the test with NCI-H522 lung, with HL-60(TB) leukemia, in the test with HCC-2998 colon, with 786-0 renal and in the test on CCRF-CEM leukemia was more than 100 µM each time. The same molecule yielded a TGI in the test with SW-620 colon of more than 100 µM.

`CC(C)(Oc1ccc2c(=O)cc(-c3ccccc3)oc2c1)C(=O)Nc1c(Cl)cccc1Cl`: the TGI in the test with SK-MEL-28 melanoma, in the test with OVCAR-5 ovarian, in the test with HT29 colon, in the test on UACC-62 melanoma, in the test on HCT-15 colon and with SK-MEL-2 melanoma was more than 100 µM each time. Further, the TGI in the test with OVCAR-3 ovarian, in the test on U251 CNS, with LOX IMVI melanoma, with NCI-H522 lung, with SR leukemia and in the test on HL-60(TB) leukemia was more than 100 µM in each case. The TGI in the test with 786-0 renal, with CCRF-CEM leukemia and in the test on SW-620 colon was more than 100 µM each time.

Turning to `CC(/C=N\NC(=S)N(C)C)=N/NC(=S)N(C)C`, the TGI in the test on SK-MEL-28 melanoma was more than 100 µM; in the test with OVCAR-5 ovarian, more than 100 µM; with HT29 colon, more than 100 µM; in the test with SNB-75 CNS, more than 100 µM; in the test with UACC-62 melanoma it was more than 100 µM; in the test with HCT-15 colon it was more than 54.3 µM. The TGI is more than 100 µM in the test with SN12C renal; 70.7 µM in the test with SK-MEL-2 melanoma; 13.9 µM in the test on NCI-H226 lung; more than 22.8 µM in the test on OVCAR-3 ovarian; more than 100 µM with MDA-MB-435; more than 100 µM in the test on U251 CNS. The TGI in the test with LOX IMVI melanoma is more than 100 µM; in the test on NCI-H522 lung, 20.6 µM; in the test on HCC-2998 colon, 75.9 µM; in the test on 786-0 renal, more than 59.8 µM; with SW-620 colon, more than 100 µM.

Turning to `CC(C)(CC#N)c1cc(CC(C)(C)c2cc(CC(C)(C)c3cc(C(C)(C)C4(C)OCCO4)no3)no2)no1`, the TGI is more than 100 µM in the test on SK-MEL-28 melanoma; more than 100 µM with OVCAR-5 ovarian; more than 100 µM in the test with HT29 colon; 43.5 µM with SNB-75 CNS; more than 100 µM with UACC-62 melanoma; more than 100 µM with HCT-15 colon. In addition, the TGI in the test with SN12C renal, in the test on SK-MEL-2 melanoma, in the test with NCI-H226 lung, with OVCAR-3 ovarian, in the test with MDA-MB-435 and with U251 CNS was more than 100 µM in each case. The TGI is more than 100 µM with NCI-H522 lung; more than 100 µM in the test with HCC-2998 colon; 43.1 µM in the test with 786-0 renal; more than 100 µM in the test on CCRF-CEM leukemia; more than 100 µM with SW-620 colon.

For `O=c1oc2ccccc2c(O)c1C(c1ccc2c(c1)Cc1ccccc1-2)c1c(O)c2ccccc2oc1=O`, the TGI in the test on SK-MEL-28 melanoma was 57.6 µM; in the test on OVCAR-5 ovarian it was 66.1 µM; in the test on HT29 colon it was more than 100 µM; in the test with SNB-75 CNS, more than 100 µM; in the test on UACC-62 melanoma, 49.8 µM; in the test on HCT-15 colon it was 57.2 µM. Besides, the TGI is 41.2 µM in the test on SN12C renal; 74.2 µM in the test on SK-MEL-2 melanoma; more than 100 µM in the test on NCI-H226 lung; more than 100 µM in the test with OVCAR-3 ovarian; 77.4 µM with MDA-MB-435; 60.3 µM in the test on U251 CNS. Moreover, the TGI is 66.7 µM with LOX IMVI melanoma; 49.2 µM in the test on NCI-H522 lung; 59.8 µM in the test on HL-60(TB) leukemia; 33.6 µM in the test with HCC-2998 colon; 66.9 µM with 786-0 renal; more than 100 µM with CCRF-CEM leukemia. In the test on SW-620 colon, this molecule registered a TGI of 90.9 µM.

As to `N#CC(C(=N/NC(N)=S)/C(=N/NC(N)=S)C(C#N)c1ccc(Cl)cc1)c1ccc(Cl)cc1` (centres undefined), the TGI in the test on SK-MEL-28 melanoma was more than 100 µM; with OVCAR-5 ovarian, more than 100 µM; with HT29 colon it was more than 100 µM; with SNB-75 CNS, 92.1 µM; in the test on UACC-62 melanoma, more than 100 µM; in the test on HCT-15 colon, more than 100 µM. The TGI with SN12C renal, in the test on SK-MEL-2 melanoma, with NCI-H226 lung, in the test on OVCAR-3 ovarian, in the test on U251 CNS and in the test with LOX IMVI melanoma was more than 100 µM each time. Further, the TGI in the test on NCI-H522 lung was more than 100 µM; in the test with HCC-2998 colon, more than 100 µM; in the test with 786-0 renal, more than 100 µM; in the test on CCRF-CEM leukemia, 97.9 µM; in the test on SW-620 colon, more than 100 µM.

`CCN(CC)Cc1cc(Nc2c3ccccc3nc3c4ccccc4n(C)c23)ccc1O`: the TGI in the test with SK-MEL-28 melanoma came to 15.3 µM; with OVCAR-5 ovarian, 21.9 µM; with HT29 colon it was 17.8 µM; with SNB-75 CNS it was 27.3 µM; in the test with UACC-62 melanoma it was 17.2 µM; in the test with HCT-15 colon it was 22.8 µM. Moreover, the TGI with SN12C renal was found to be 27.5 µM; in the test with SK-MEL-2 melanoma, 36.2 µM; in the test with NCI-H226 lung, 57.4 µM; in the test on U251 CNS, 22.7 µM; in the test on LOX IMVI melanoma, 9.1 µM; with NCI-H522 lung, 6.39 µM. The TGI in the test on HL-60(TB) leukemia was found to be 12.9 µM; with 786-0 renal it was 14 µM; in the test with CCRF-CEM leukemia, 6.44 µM; in the test on SW-620 colon, 18.6 µM.
